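1) Cells in 96-well plates. 2) Compound, 48 h, 5 concentrations. 3) Linear interpolation between surrounding doses. 4) Unreached endpoint = highest concentration. GI50 is the concentration that inhibits growth by half. At the TGI there is no net growth.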
Experiments:
Test in all cases: NCI tumour cell line growth inhibition, 48 h
[1] = system: 786-0 renal
[2] = system: A498 renal
[3] = system: A549 NSCLC
[4] = system: ACHN renal
[5] = system: BT-549 breast
[6] = system: CAKI-1 renal
[7] = system: CCRF-CEM leukemia
[8] = system: COLO 205 colon
[9] = system: DU-145 prostate
[10] = system: EKVX NSCLC
[11] = system: HCC-2998 colon
[12] = system: HCT-116 colon
[13] = system: HCT-15 colon
[14] = system: HL-60(TB) leukemia
[15] = system: HOP-62 NSCLC
[16] = system: HOP-92 NSCLC
[17] = system: HS 578T breast
[18] = system: HT29 colon
[19] = system: IGROV1 ovarian
[20] = system: K-562 leukemia
[21] = system: KM12 colon
[22] = system: LOX IMVI melanoma
[23] = system: M14 melanoma
[24] = system: MALME-3M melanoma
[25] = system: MCF7 breast
[26] = system: MDA-MB-231 breast
[27] = system: MDA-MB-435
[28] = system: MDA-N
[29] = system: MOLT-4 leukemia
[30] = system: NCI-H226 lung
[31] = system: NCI-H23 lung
[32] = system: NCI-H460 lung
[33] = system: NCI-H522 lung
[34] = system: NCI/ADR-RES ovarian
[35] = system: OVCAR-3 ovarian
[36] = system: OVCAR-4 ovarian
[37] = system: OVCAR-5 ovarian
[38] = system: OVCAR-8 ovarian
[39] = system: PC-3 prostate
[40] = system: RPMI-8226 leukemia
[41] = system: RXF 393 renal
[42] = system: SF-268 CNS
[43] = system: SF-295 CNS
[44] = system: SF-539 CNS
[45] = system: SK-MEL-2 melanoma
[46] = system: SK-MEL-28 melanoma
[47] = system: SK-MEL-5 melanoma
[48] = system: SK-OV-3 ovarian
[49] = system: SN12C renal
[50] = system: SNB-19 CNS
[51] = system: SR leukemia
[52] = system: SW-620 colon
[53] = system: T-47D breast
[54] = system: TK-10 renal
[55] = system: U251 CNS
[56] = system: UACC-62 melanoma
[57] = system: UO-31 renal
[58] = system: HOP-18 NSCLC
[59] = system: KM20L2 colon
[60] = system: UACC-257 melanoma
[61] = system: SNB-75 CNS

Cc1cc2c(nn1)-c1ccccc1C2=O
TGI [1]: > 10 µM | TGI [2]: > 10 µM | TGI [3]: > 10 µM | TGI [4]: > 10 µM | TGI [5]: > 10 µM | TGI [6]: > 10 µM | TGI [7]: > 10 µM | TGI [8]: > 10 µM | TGI [9]: > 10 µM | TGI [10]: > 10 µM | TGI [11]: > 10 µM | TGI [12]: > 10 µM | TGI [13]: > 10 µM | TGI [14]: > 10 µM | TGI [15]: > 10 µM | TGI [16]: > 10 µM | TGI [17]: > 10 µM | TGI [18]: > 10 µM | TGI [19]: > 10 µM | TGI [20]: > 10 µM | TGI [21]: > 10 µM | TGI [22]: > 10 µM | TGI [23]: > 10 µM | TGI [24]: > 10 µM | TGI [25]: > 10 µM | TGI [26]: > 10 µM | TGI [27]: > 10 µM | TGI [28]: > 10 µM | TGI [29]: > 10 µM | TGI [30]: > 10 µM | TGI [31]: > 10 µM | TGI [32]: > 10 µM | TGI [33]: > 10 µM | TGI [34]: > 10 µM | TGI [35]: > 10 µM | TGI [36]: > 10 µM | TGI [37]: > 10 µM | TGI [38]: > 10 µM | TGI [39]: > 10 µM | TGI [40]: > 10 µM | TGI [41]: > 10 µM | TGI [42]: > 10 µM | TGI [43]: > 10 µM | TGI [44]: > 10 µM | TGI [45]: > 10 µM | TGI [46]: > 10 µM | TGI [47]: > 10 µM | TGI [48]: > 10 µM | TGI [49]: > 10 µM | TGI [50]: > 10 µM | TGI [51]: > 10 µM | TGI [52]: > 10 µM | TGI [53]: > 10 µM | TGI [54]: > 10 µM | TGI [55]: > 10 µM | TGI [56]: > 10 µM | TGI [57]: > 10 µM

O=C([CH-]C(=O)c1ccccc1)c1ccccc1.O=C([CH-]C(=O)c1ccccc1)c1ccccc1.[O]=[U+2]=[O]
GI50 [2]: 2.59 µM | TGI [2]: 7.89 µM | GI50 [3]: 3.17 µM | TGI [3]: 18.7 µM | GI50 [4]: 3.39 µM | TGI [4]: 11.9 µM | GI50 [6]: 3.79 µM | TGI [6]: 15.6 µM | GI50 [8]: 2.11 µM | TGI [8]: 4.71 µM | GI50 [10]: 4.78 µM | TGI [10]: > 100 µM | GI50 [12]: 2.99 µM | TGI [12]: 15.9 µM | GI50 [13]: 2.78 µM | TGI [13]: 11.1 µM | GI50 [58]: 5.3 µM | TGI [58]: 24.9 µM | GI50 [16]: 2.9 µM | TGI [16]: 6.18 µM | GI50 [18]: 2.39 µM | TGI [18]: 7.71 µM | GI50 [19]: 3.33 µM | TGI [19]: 12.6 µM | GI50 [59]: 2.65 µM | TGI [59]: 12.4 µM | GI50 [22]: 2.7 µM | TGI [22]: > 100 µM | GI50 [23]: 2.35 µM | TGI [23]: 6.42 µM | GI50 [29]: 2.57 µM | TGI [29]: 27.3 µM | GI50 [31]: 4.01 µM | TGI [31]: > 100 µM | GI50 [32]: 1.99 µM | TGI [32]: 13.1 µM | GI50 [35]: 1.81 µM | TGI [35]: 4.79 µM | GI50 [36]: 2.42 µM | TGI [36]: 14 µM | GI50 [38]: 3.02 µM | TGI [38]: > 100 µM | GI50 [40]: 1.99 µM | TGI [40]: 6.4 µM | GI50 [41]: 2.35 µM | TGI [41]: 6.22 µM | GI50 [43]: 1.81 µM | TGI [43]: 4.29 µM | GI50 [44]: 2.45 µM | TGI [44]: 6.44 µM | GI50 [46]: 3.49 µM | TGI [46]: 19.9 µM | GI50 [47]: 2.77 µM | TGI [47]: 9.12 µM | GI50 [48]: 4.01 µM | TGI [48]: 12.3 µM | GI50 [49]: 3.33 µM | TGI [49]: 18.7 µM | GI50 [50]: 3.36 µM | TGI [50]: 18.9 µM | GI50 [52]: 3.15 µM | TGI [52]: > 100 µM | GI50 [54]: 4.8 µM | TGI [54]: 26.6 µM | GI50 [55]: 3.06 µM | TGI [55]: > 100 µM | GI50 [60]: 7.84 µM | TGI [60]: 35.5 µM | GI50 [56]: 2.43 µM | TGI [56]: 6.91 µM

Cc1cn([C@H]2C[C@](C)(CO)N(C)O2)c(=O)[nH]c1=O
TGI [1]: > 100 µM | TGI [2]: > 100 µM | TGI [3]: > 100 µM | TGI [4]: > 100 µM | TGI [5]: > 100 µM | TGI [6]: > 100 µM | TGI [8]: > 100 µM | TGI [9]: > 100 µM | TGI [10]: > 100 µM | TGI [11]: > 100 µM | TGI [12]: > 100 µM | TGI [14]: > 100 µM | TGI [15]: > 100 µM | TGI [16]: > 100 µM | TGI [17]: > 100 µM | TGI [18]: > 100 µM | TGI [19]: > 100 µM | TGI [20]: > 100 µM | TGI [21]: > 100 µM | TGI [22]: > 100 µM | TGI [23]: > 100 µM | TGI [24]: > 100 µM | TGI [25]: > 100 µM | TGI [26]: > 100 µM | TGI [27]: > 100 µM | TGI [28]: > 100 µM | TGI [29]: > 100 µM | TGI [30]: > 100 µM | TGI [31]: > 100 µM | TGI [32]: > 100 µM | TGI [33]: > 100 µM | TGI [34]: > 100 µM | TGI [36]: > 100 µM | TGI [37]: > 100 µM | TGI [39]: > 100 µM | TGI [40]: > 100 µM | TGI [41]: > 100 µM | TGI [42]: > 100 µM | TGI [43]: > 100 µM | TGI [45]: > 100 µM | TGI [46]: > 100 µM | TGI [47]: > 100 µM | TGI [48]: > 100 µM | TGI [49]: > 100 µM | TGI [50]: > 100 µM | TGI [61]: > 100 µM | TGI [51]: > 100 µM | TGI [52]: > 100 µM | TGI [53]: > 100 µM | TGI [54]: > 100 µM | TGI [55]: > 100 µM | TGI [60]: > 100 µM | TGI [56]: > 100 µM | TGI [57]: > 100 µM
